Laboratory results from article PMC7145717, “A nucleotide-dependent oligomerization of the Escherichia coli replication initiator DnaA requires residue His136 for remodeling of the chromosomal origin” (Nucleic Acids Research, 2019).

T1: DnaA (Escherichia coli replication initiator DnaA) (Escherichia coli, UniProt P03004)
T1 construct: full-length, residues 1-467, 10X-histidine-tagged, recombinant from plasmid pZL411, Ni-NTA purified (SAXS samples also Sephacryl-300 gel filtration), ~52 kDa monomer
T1 sequence (P03004 1-467): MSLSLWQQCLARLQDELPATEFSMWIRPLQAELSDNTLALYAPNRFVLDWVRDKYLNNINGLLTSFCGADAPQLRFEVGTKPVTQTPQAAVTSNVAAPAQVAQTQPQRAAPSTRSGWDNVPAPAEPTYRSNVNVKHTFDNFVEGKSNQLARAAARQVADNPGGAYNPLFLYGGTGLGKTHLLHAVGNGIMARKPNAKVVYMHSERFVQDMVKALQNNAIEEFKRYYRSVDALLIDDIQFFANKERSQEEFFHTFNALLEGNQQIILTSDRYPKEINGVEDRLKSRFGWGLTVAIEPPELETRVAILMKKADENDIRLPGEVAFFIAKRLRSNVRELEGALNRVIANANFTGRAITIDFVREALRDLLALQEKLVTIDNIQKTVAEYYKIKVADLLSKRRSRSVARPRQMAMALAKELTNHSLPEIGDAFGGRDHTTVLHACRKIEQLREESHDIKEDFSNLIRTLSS

T2: DnaA (Escherichia coli replication initiator DnaA) (Escherichia coli, UniProt P03004, F76A)
T2 construct: full-length, residues 1-467, 10X-histidine-tagged, recombinant from plasmid pZL411, Ni-NTA purified (SAXS samples also Sephacryl-300 gel filtration), ~52 kDa monomer
T2 sequence (P03004 1-467 F76A): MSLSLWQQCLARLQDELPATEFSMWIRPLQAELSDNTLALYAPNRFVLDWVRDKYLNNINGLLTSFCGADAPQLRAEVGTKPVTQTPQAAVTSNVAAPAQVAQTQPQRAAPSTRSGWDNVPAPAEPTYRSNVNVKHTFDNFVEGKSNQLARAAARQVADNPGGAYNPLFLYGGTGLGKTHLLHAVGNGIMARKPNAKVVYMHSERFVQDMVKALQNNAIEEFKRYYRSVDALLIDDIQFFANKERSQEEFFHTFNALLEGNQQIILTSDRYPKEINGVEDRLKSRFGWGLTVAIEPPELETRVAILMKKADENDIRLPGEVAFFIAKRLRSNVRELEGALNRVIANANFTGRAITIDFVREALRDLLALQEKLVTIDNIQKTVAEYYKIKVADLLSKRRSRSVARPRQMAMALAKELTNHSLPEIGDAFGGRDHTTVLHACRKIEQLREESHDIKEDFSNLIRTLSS

T3: DnaA (Escherichia coli replication initiator DnaA) (Escherichia coli, UniProt P03004, F76Y)
T3 construct: full-length, residues 1-467, 10X-histidine-tagged, recombinant from plasmid pZL411, Ni-NTA purified (SAXS samples also Sephacryl-300 gel filtration), ~52 kDa monomer
T3 sequence (P03004 1-467 F76Y): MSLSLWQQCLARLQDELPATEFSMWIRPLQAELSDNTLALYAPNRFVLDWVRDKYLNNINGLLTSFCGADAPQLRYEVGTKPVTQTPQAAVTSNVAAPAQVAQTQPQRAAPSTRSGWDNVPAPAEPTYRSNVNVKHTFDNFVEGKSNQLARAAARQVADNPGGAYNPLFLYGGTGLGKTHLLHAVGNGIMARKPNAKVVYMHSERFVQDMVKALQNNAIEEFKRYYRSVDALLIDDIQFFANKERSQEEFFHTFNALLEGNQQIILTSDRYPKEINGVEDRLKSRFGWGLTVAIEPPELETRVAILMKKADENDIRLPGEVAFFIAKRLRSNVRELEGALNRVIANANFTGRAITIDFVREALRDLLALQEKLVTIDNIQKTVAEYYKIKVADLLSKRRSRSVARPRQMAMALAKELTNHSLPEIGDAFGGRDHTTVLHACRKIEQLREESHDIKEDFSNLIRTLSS

T4: DnaA (Escherichia coli replication initiator DnaA) (Escherichia coli, UniProt P03004, H136A)
T4 construct: full-length, residues 1-467, 10X-histidine-tagged, recombinant from plasmid pZL411, Ni-NTA purified (SAXS samples also Sephacryl-300 gel filtration), ~52 kDa monomer
T4 sequence (P03004 1-467 H136A): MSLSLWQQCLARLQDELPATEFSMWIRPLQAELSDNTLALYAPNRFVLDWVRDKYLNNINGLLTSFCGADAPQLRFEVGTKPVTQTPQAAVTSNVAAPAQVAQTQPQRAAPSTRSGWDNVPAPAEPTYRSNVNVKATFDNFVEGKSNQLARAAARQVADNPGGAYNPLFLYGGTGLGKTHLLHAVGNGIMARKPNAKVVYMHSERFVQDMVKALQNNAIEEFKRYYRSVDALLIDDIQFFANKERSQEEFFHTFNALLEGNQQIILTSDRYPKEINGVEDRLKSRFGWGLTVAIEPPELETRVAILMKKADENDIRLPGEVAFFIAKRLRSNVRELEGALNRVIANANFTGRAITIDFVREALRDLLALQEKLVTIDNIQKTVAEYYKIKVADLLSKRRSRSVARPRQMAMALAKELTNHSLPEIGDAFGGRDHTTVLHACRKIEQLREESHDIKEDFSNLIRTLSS

T5: DnaA (Escherichia coli replication initiator DnaA) (Escherichia coli, UniProt P03004, H136Q)
T5 construct: full-length, residues 1-467, 10X-histidine-tagged, recombinant from plasmid pZL411, Ni-NTA purified (SAXS samples also Sephacryl-300 gel filtration), ~52 kDa monomer
T5 sequence (P03004 1-467 H136Q): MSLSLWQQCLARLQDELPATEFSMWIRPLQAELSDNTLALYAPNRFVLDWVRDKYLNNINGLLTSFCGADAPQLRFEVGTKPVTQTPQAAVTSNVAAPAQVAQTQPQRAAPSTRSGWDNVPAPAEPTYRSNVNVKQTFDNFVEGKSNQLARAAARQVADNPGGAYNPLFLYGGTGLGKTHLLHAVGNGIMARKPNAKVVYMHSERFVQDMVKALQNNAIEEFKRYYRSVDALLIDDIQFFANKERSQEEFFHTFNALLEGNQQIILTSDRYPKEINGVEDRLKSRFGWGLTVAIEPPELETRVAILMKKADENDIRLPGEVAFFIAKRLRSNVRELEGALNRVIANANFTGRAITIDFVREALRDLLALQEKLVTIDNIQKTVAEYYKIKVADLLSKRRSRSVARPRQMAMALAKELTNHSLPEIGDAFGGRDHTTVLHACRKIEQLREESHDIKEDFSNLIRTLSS

T6: DnaA (Escherichia coli replication initiator DnaA) (Escherichia coli, UniProt P03004, Q156E)
T6 construct: full-length, residues 1-467, 10X-histidine-tagged, recombinant from plasmid pZL411, Ni-NTA purified (SAXS samples also Sephacryl-300 gel filtration), ~52 kDa monomer
T6 sequence (P03004 1-467 Q156E): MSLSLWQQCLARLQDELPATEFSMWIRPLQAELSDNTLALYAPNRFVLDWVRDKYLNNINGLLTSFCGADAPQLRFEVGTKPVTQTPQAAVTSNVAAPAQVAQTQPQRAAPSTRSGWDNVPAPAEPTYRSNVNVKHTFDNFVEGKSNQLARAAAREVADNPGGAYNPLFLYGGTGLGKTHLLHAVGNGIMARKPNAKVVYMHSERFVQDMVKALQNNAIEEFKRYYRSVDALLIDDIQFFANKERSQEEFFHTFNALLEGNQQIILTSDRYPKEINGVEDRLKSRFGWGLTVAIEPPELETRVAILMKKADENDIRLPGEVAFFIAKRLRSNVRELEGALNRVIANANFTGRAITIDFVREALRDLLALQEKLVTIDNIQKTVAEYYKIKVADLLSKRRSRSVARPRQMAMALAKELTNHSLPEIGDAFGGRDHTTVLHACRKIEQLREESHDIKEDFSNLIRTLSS

T7: DnaA (Escherichia coli replication initiator DnaA) (Escherichia coli, UniProt P03004, Q156N)
T7 construct: full-length, residues 1-467, 10X-histidine-tagged, recombinant from plasmid pZL411, Ni-NTA purified (SAXS samples also Sephacryl-300 gel filtration), ~52 kDa monomer
T7 sequence (P03004 1-467 Q156N): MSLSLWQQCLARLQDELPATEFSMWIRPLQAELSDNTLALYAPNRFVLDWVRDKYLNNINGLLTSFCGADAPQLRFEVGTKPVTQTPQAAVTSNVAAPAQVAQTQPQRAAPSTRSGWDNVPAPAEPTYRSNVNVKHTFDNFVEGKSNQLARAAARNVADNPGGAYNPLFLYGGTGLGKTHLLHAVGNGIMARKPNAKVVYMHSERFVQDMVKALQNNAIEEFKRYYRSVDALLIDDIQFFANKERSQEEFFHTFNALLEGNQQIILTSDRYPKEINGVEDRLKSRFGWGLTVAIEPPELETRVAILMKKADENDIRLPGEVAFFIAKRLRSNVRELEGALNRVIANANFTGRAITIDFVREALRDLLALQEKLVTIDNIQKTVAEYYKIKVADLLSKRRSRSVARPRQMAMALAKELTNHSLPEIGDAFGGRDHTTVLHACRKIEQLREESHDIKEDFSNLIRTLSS

B1: DnaA(H136A) (natural protein, E. coli, UniProt P03004 1-467, looked up)
chain: MSLSLWQQCLARLQDELPATEFSMWIRPLQAELSDNTLALYAPNRFVLDWVRDKYLNNINGLLTSFCGADAPQLRFEVGTKPVTQTPQAAVTSNVAAPAQVAQTQPQRAAPSTRSGWDNVPAPAEPTYRSNVNVKATFDNFVEGKSNQLARAAARQVADNPGGAYNPLFLYGGTGLGKTHLLHAVGNGIMARKPNAKVVYMHSERFVQDMVKALQNNAIEEFKRYYRSVDALLIDDIQFFANKERSQEEFFHTFNALLEGNQQIILTSDRYPKEINGVEDRLKSRFGWGLTVAIEPPELETRVAILMKKADENDIRLPGEVAFFIAKRLRSNVRELEGALNRVIANANFTGRAITIDFVREALRDLLALQEKLVTIDNIQKTVAEYYKIKVADLLSKRRSRSVARPRQMAMALAKELTNHSLPEIGDAFGGRDHTTVLHACRKIEQLREESHDIKEDFSNLIRTLSS
notes: DnaA, E. coli, amino acid residues 1-467, with H136A; Made by site-directed mutagenesis on pZL411; also called ATP-DnaA(H136A)

Key:
[1] = biological target: T1, DnaA (Escherichia coli replication initiator DnaA); experiment: nitrocellulose filter retention assay; settings: read-out: K D (ATP binding)
Text: (§1) nitrocellulose filter retention assay on DnaA (Escherichia coli replication initiator DnaA)

[2] = biological target: T2, DnaA (Escherichia coli replication initiator DnaA); experiment: nitrocellulose filter retention assay; settings: read-out: K D (ATP binding)
Text: as §1

[3] = biological target: T3, DnaA (Escherichia coli replication initiator DnaA); experiment: nitrocellulose filter retention assay; settings: read-out: K D (ATP binding)
Text: as §1

[4] = biological target: T4, DnaA (Escherichia coli replication initiator DnaA); experiment: nitrocellulose filter retention assay; settings: read-out: K D (ATP binding)
Text: as §1

[5] = biological target: T5, DnaA (Escherichia coli replication initiator DnaA); experiment: nitrocellulose filter retention assay; settings: read-out: K D (ATP binding)
Text: as §1

[6] = biological target: T6, DnaA (Escherichia coli replication initiator DnaA); experiment: nitrocellulose filter retention assay; settings: read-out: K D (ATP binding)
Text: as §1

[7] = biological target: T7, DnaA (Escherichia coli replication initiator DnaA); experiment: nitrocellulose filter retention assay; settings: read-out: K D (ATP binding)
Text: as §1

[8] = biological target: the molecule itself; experiment: cross-linking; amine-specific cross-linker DTSSP; apo or with 0.5 mM ADP, AMP-PNP or ATP; SDS-PAGE and western blot with anti-DnaA antibody

| Molecule | Kd [1] | Kd [2] | Kd [3] | Kd [4] | Kd [5] | Kd [6] | Kd [7] | binding result [8] |
| --- | --- | --- | --- | --- | --- | --- | --- | --- |
| Nc1ncnc2c1ncn2[C@@H]1O[C@H](COP(=O)(O)OP(=O)(O)OP(=O)(O)O)[C@@H](O)[C@H]1O [ATP] | 110 ± 30 nM | 120 ± 30 nM | 140 ± 30 nM | 140 ± 40 nM | 100 ± 20 nM | 100 ± 20 nM | 100 ± 20 nM |  |
| B1 |  |  |  |  |  |  |  | binds |
